Test results published in publication PMC4677984, “Activation of Muscarinic M1 Acetylcholine Receptors Induces Long-Term Potentiation in the Hippocampus” (Cerebral Cortex (New York, NY), 2015).

Experiments:
[1] = tested on: CA1 pyramidal cell firing; conditions: studies not reported here; reversed by scopolamine
cognition = conditions: clinical study; ref Nathan et al. 2013; cited from earlier work
CA1 pyramidal neurons [2] = tested on: CA1 pyramidal neurons
human M5 receptors [3] = biological target: T1, human M5 receptors (Homo sapiens, UniProt P08912); conditions: over the concentration range tested
T1 sequence (P08912 whole entry): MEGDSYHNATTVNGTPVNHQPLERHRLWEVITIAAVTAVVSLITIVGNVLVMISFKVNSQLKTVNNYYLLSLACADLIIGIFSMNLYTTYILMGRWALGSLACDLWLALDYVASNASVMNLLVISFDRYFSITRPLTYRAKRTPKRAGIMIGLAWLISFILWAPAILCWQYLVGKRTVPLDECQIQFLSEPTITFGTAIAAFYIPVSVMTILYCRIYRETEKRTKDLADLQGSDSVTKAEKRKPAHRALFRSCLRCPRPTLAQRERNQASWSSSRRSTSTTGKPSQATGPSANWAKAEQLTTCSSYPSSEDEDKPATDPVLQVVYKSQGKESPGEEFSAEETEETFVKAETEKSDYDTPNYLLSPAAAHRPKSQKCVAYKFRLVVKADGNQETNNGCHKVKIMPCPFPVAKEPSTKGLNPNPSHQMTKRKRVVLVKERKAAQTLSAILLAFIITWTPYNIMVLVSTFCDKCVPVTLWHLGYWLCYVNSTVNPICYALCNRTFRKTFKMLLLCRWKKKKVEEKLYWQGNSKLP
Experimental: (§1) CHO cells stably expressing recombinant human M1, M3, and M5 Rs and AV12 cells stably expressing Gα15 and recombinant human M2 or M4 Rs were cultured in DMEM with high glucose and pyridoxine hydrochloride supplemented with 5–10% heat-inactivated fetal bovine serum, 10–20 mM HEPES, 1 mM L-glutamine, 1% penicillin/streptomycin solution and selection agents, 0.5 mg/mL geneticin, or 0.3 µg/mL puromycin. Confluent cultures were passaged weekly and cells harvested 24 h prior to assay using 0.25% trypsin–EDTA and plated at a density of 40 000–50 000 cells per well in tissue culture treated, poly-D-lysine-coated 96-well black-walled, clear bottom plates (Corning or Becton-Dickinson). For FLIPR (FLIPR-tetra, Molecular Devices) assays, media was removed and cells were incubated with 5 µM Fluo-4-AM/0.05% pluronic F-127 (Invitrogen) in a HEPES-buffered salt solution (HEPES-HBSS; composition, in mM; 135 NaCl, 5 KCl, 1.3 CaCl2, 0.5 MgCl2, 0.4 MgSO4, 0.4 KH2PO4, 4.2 NaHCO3, 0.3 Na2HPO4, 5.6 glucose, 20 HEPES, +2.5 mM probenecid for CHO cell lines, pH 7.5 adjusted with 5 M NaOH) for 1 h at room temperature, in the dark, before the media was removed and replaced with HEPES-buffered salt solution in the absence of Fluo-4. Probenecid was included to optimize dye loading in CHO cell lines. Although probenecid has been reported to interact and activate some TRP channels {McClenaghan, 2012 #2996}, there are no reports of interactions with mAChRs or nontransfected CHO cells. Plates were then transferred to FLIPR for experiments, which were also conducted at room temperature.
(§2) For data analysis, relative EC50 and IC50 values were calculated using a 4-parameter logistic curve (GraphPad Prism v6).

human M2 receptors [4] = biological target: T2, human M2 receptors (Homo sapiens, UniProt P08172); conditions: over the concentration range tested
T2 sequence (P08172 whole entry): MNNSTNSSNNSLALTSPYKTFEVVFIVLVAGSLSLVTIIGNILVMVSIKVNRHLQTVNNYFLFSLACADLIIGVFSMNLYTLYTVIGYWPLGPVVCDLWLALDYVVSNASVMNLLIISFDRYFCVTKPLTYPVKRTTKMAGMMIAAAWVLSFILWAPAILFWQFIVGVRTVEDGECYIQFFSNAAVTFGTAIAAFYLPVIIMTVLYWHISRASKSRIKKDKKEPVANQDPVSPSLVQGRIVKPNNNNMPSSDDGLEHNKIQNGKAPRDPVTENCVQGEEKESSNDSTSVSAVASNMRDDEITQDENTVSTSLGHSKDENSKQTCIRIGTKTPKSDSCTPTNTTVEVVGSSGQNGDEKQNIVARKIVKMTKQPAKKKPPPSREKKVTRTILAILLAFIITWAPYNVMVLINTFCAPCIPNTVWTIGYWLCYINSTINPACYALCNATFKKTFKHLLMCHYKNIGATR
Experimental: as §1, §2

human M4 receptors [5] = biological target: T3, human M4 receptors (Homo sapiens, UniProt P08173); conditions: over the concentration range tested
T3 sequence (P08173 whole entry): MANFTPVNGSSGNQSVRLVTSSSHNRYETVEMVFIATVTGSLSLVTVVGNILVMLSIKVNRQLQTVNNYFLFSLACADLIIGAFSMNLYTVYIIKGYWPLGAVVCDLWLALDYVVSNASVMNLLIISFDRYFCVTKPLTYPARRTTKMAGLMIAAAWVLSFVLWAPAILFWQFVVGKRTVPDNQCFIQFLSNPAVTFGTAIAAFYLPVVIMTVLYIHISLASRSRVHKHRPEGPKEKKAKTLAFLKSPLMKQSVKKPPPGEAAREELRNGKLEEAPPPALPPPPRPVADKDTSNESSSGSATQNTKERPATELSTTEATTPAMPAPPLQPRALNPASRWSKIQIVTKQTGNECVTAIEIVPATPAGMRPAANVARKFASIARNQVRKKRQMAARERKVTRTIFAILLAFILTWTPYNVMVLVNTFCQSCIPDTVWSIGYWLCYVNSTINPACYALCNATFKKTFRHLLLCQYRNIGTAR
Experimental: as §1, §2

human M3 receptors = human M3 receptors (Homo sapiens, UniProt P20309); conditions: over the concentration range tested
Chain of human M3 receptors (P20309 whole entry): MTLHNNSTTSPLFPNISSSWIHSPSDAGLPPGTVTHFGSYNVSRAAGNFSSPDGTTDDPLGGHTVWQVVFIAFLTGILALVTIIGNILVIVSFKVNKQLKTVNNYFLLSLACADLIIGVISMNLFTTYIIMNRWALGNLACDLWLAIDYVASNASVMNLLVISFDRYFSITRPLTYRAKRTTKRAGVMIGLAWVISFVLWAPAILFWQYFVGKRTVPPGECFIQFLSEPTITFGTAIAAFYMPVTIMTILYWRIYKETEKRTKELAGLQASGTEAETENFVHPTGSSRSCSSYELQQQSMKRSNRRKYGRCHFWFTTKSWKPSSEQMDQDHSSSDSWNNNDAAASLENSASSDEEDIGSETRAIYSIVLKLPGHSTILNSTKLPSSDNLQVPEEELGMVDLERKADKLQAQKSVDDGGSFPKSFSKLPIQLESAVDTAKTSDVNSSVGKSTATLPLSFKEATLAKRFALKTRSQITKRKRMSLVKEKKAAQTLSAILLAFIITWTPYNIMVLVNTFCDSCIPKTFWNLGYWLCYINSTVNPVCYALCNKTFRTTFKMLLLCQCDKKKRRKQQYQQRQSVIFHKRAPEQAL
Experimental: as §1, §2

human M1Rs = human M1Rs (Homo sapiens, UniProt P11229); assay: cell-based
Chain of human M1Rs (P11229 whole entry): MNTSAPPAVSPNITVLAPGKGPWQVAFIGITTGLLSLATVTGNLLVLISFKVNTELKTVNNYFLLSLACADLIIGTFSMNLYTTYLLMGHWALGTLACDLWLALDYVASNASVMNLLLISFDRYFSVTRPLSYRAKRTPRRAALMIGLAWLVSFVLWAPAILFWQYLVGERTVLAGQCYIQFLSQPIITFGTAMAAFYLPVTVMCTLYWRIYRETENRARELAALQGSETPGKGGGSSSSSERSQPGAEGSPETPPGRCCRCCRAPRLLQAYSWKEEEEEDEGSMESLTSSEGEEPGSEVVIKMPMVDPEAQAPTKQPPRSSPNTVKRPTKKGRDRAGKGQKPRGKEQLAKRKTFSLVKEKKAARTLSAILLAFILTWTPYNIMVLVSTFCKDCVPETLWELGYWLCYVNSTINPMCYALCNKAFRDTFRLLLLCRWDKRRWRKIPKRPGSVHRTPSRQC
Experimental: CHO cells stably expressing recombinant human M1, M3, and M5 Rs and AV12 cells stably expressing Gα15 and recombinant human M2 or M4 Rs were cultured in DMEM with high glucose and pyridoxine hydrochloride supplemented with 5–10% heat-inactivated fetal bovine serum, 10–20 mM HEPES, 1 mM L-glutamine, 1% penicillin/streptomycin solution and selection agents, 0.5 mg/mL geneticin, or 0.3 µg/mL puromycin. Confluent cultures were passaged weekly and cells harvested 24 h prior to assay using 0.25% trypsin–EDTA and plated at a density of 40 000–50 000 cells per well in tissue culture treated, poly-D-lysine-coated 96-well black-walled, clear bottom plates (Corning or Becton-Dickinson). For FLIPR (FLIPR-tetra, Molecular Devices) assays, media was removed and cells were incubated with 5 µM Fluo-4-AM/0.05% pluronic F-127 (Invitrogen) in a HEPES-buffered salt solution (HEPES-HBSS; composition, in mM; 135 NaCl, 5 KCl, 1.3 CaCl2, 0.5 MgCl2, 0.4 MgSO4, 0.4 KH2PO4, 4.2 NaHCO3, 0.3 Na2HPO4, 5.6 glucose, 20 HEPES, +2.5 mM probenecid for CHO cell lines, pH 7.5 adjusted with 5 M NaOH) for 1 h at room temperature, in the dark, before the media was removed and replaced with HEPES-buffered salt solution in the absence of Fluo-4. […]

5-HT2B receptors = conditions: ref Melancon et al. 2013; cited from earlier work
CA1 pyramidal neurons [6] = conditions: 7 µM, WT mice, NBQX + L-689,560, -55 mV
human M5 receptors [7] = biological target: T1, human M5 receptors; assay: cell-based
Experimental: as §1, §2

human M2 receptors [8] = biological target: T2, human M2 receptors; assay: cell-based
Experimental: as §1, §2

human M4 receptors [9] = biological target: T3, human M4 receptors; assay: cell-based
Experimental: as §1, §2

CA1 pyramidal neurons [10] = conditions: 7 µM, WT mice 6-9 weeks
[11] = tested on: Gαq activation in M1 KO hippocampal membranes
Experimental: (§3) All procedures were performed at 4°C. […] Homogenate was centrifuged at 1000×g for 10 min and supernatant collected, the pellet was rehomogenized and centrifuged again, as above, and supernatant pooled and centrifuged at 11 000×g for 20 min. The resulting pellet was suspended in a final storage buffer (10 mM HEPES, 1 mM EGTA, 1 mM MgCl2, 1 mM DTT; pH 7.4) and centrifuged at 27 000×g for 20 min. Supernatant was removed and the final pellet suspended in 2 mL of final storage buffer. Protein concentration was measured using the Bradford method ([Bradford 1976]) (Coomassie Plus, Bio-Rad protein assay kit) with bovine gamma globulin standards. Samples were then aliquoted and stored at −80°C.
GTPɣ[^35S] binding in mouse WT and M1 KO hippocampal membranes were determined in triplicate using an antibody capture technique in 96-well plate format ([DeLapp et al. 1999]). Membrane aliquots (15 µg/well) from WT or M1 KO C57BL6/NTac mice were incubated with test compound and GTPɣ[^35S] (500 pM/well) for 30 min. […] Plates were left to incubate for 3 h and then centrifuged for 10 min at 2000 rpm. Plates were counted for 1 min/well using a Wallac MicroBeta Trilux scintillation counter (PerkinElmer). […]
as §2

[12] = tested on: CA1 pyramidal neurons (M1R KO); conditions: 7 µM, M1R KO mice
[13] = tested on: CA1 pyramidal neurons (M1R KO); conditions: 7 µM, M1R KO mice; remark: listed apart in the source
dopamine D2 receptors = conditions: ref Melancon et al. 2013; cited from earlier work
mouse native M1Rs = mouse native M1Rs (Mus musculus, UniProt P12657); assay: biochemical
Chain of mouse native M1Rs (P12657 whole entry): as the sequence (P11229 whole entry) above, with A5V, T254S, R320K, A337G, I413V counted along it
Experimental: as §3
GTPɣ[^35S] binding in mouse WT and M1 KO hippocampal membranes were determined in triplicate using an antibody capture technique in 96-well plate format ([DeLapp et al. 1999]). Membrane aliquots (15 µg/well) from WT or M1 KO C57BL6/NTac mice were incubated with test compound and GTPɣ[^35S] (500 pM/well) for 30 min. […] Plates were left to incubate for 3 h and then centrifuged for 10 min at 2000 rpm. Plates were counted for 1 min/well using a Wallac MicroBeta Trilux scintillation counter (PerkinElmer). All incubations took place at room temperature in GTP-binding assay buffer (In mM, 20 HEPES, 100 NaCl, 5 MgCl2; pH 7.4).
as §2

Molecule: Cc1cc(F)c2[nH]c(=O)n(C3CCN(C4CCOCC4)CC3)c2c1 [GSK1034702]
- CA1 pyramidal cell firing in vivo [1]: increase in CA1 pyramidal cell firing
- effects on cognition (cognition): positive effects on cognition

Molecule: CCCCC1CCN(CCCN2C(=O)CCc3ccccc32)CC1 [77-LH-28-1, 1-[3-(4-butyl-1-piperidinyl)propyl]-3,4-dihydro-2[1H]-quinolinone]
- EPSP amplitude (CA1 pyramidal neurons [2]): 194.2 ± 42.0%
- agonism of M5 receptors (human M5 receptors [3]): No agonism
- agonism of M2 receptors (human M2 receptors [4]): No agonism
- agonism of M4 receptors (human M4 receptors [5]): No agonism
- agonism of M3 receptors (human M3 receptors): No agonism
- EC50 (human M1Rs): 22.2 nM
- Emax (human M1Rs; read-out: efficacy (Emax)): 98 ± 2%
- cross-reactivity at 5-HT2B receptors (5-HT2B receptors): some cross-reactivity
- IPSP amplitude (CA1 pyramidal neurons [6]): 39.1 ± 9.2%
- IC50 (human M5 receptors [7]): 2220 nM
- IC50 (human M2 receptors [8]): 1190 nM
- IC50 (human M4 receptors [9]): 2030 nM
- depolarization of CA1 pyramidal neurons (CA1 pyramidal neurons [10]): 10.4 ± 3.9 mV
- increase in input resistance (CA1 pyramidal neurons [10]): 86 ± 51 MΩ
- Gαq activation response in M1R KO mice [11]: no response
- EPSP amplitude [12]: 118.5 ± 24.7%
- IPSP amplitude [13]: 64.0 ± 13.3%
- cross-reactivity at dopamine D2 receptors (dopamine D2 receptors): some cross-reactivity
- EC50 (mouse native M1Rs): 156 nM
- Emax (mouse native M1Rs; read-out: Emax for Gαq activation): 92 ± 2%

Molecule: oxotremorine M
- Gαq activation response in M1R KO mice [11]: No response
- Emax for Gαq activation (mouse native M1Rs; WT hippocampus, percentage of maximal signal with 100 µM oxo-M): 99 ± 5%
